Reference: patent US10793892B2, “Method for detecting the presence of expanded spectrum β-lactamase-producing bacteria in a sample” (INSERM (INSTITUT NATIONAL DE LA SANTE ET DE LA RECHERCHE …, priority 2011, dated 2020)

Columns and labels:
[1] = test system: C. freundii; experiment: Susceptibility testing, MIC by Etest; assay type: cell-based, Citrobacter freundii
Protocol: Susceptibility testing was performed by determining MIC values using the Etest® (AB bioMérieux; Solna, Sweden) on Mueller-Hinton agar plates at 37° C. and results were recorded according to US guidelines (CLSI), as updated in 2012 (2). The breakpoints for cefotaxime are susceptible (S)≤1 and resistant (R)≥4 μg/ml, and for ceftazidime S≤4 and R≥16 μg/ml.

[2] = test system: Enterobacteriaceae; assay type: biochemical; conditions: all CTX-M producers (n=147); tazobactam added to cefotaxime well
Protocol: Strains were isolated on Mueller-Hinton agar (Biorad, Marnes-la-Coquette, France) and incubated at 37° C. for 16 h to 24 h before performing the NDP rapid ESBL test as follows. One calibrated inoculated loop (10 μl) of the tested strain was resuspended in 150 μl of 20 mM Tris-HCl lysis buffer previously distributed in Microbead tubes (Ultraclean Microbial DNA isolation kit Bead Tubes, MO BIO Laboratories, Carlsbad, USA). Mechanical lysis of bacteria was performed by strong agitation of Microbead tubes using a vortex adapter (MO BIO Laboratories) for 30 min at room temperature. This bacterial suspension was centrifuged at 10,000×g at room temperature for 5 min. Thirty μl of the supernatant was mixed in a well of a 96-well tray with 100 μl of a 1 ml solution made of 3 mg of purified cefotaxime sodium salt (Sigma-Aldrich, Saint-Quentin-Fallavier, France) in a pH 7.8 phenol red solution. […] The phenol red solution was made by taking 2 ml of a concentrated pH 8 phenol solution (made from a mixture of phenol red 0.5% in distilled water) to which 16.6 ml of distilled water was added. The pH value was then adjusted to a 7.8 value by adding drops of a 1 N NaOH solution. Mixture of the phenol red solution and the enzymatic suspension being tested was incubated at 37° C. for 30 min. Similarly, culture extracts were analyzed in wells containing cefotaxime and tazobactam (4 mg/ml). […]

[3] = test system: E. coli; experiment: ESBL NDP test using spiked blood cultures; assay type: biochemical, Escherichia coli; design: key: (+) and (−) referred to color change being, red to yellow or unchanged, respectively; (+) and (−) referred to color change being, red to yellow or unchanged, respectively
Protocol: (§1) Strains were isolated on Mueller-Hinton agar (Biorad, Marnes-la-Coquette, France) and incubated at 37° C. for 16 h to 24 h before performing the NDP rapid ESBL test as follows. One calibrated inoculated loop (10 μl) of the tested strain was resuspended in 150 μl of 20 mM Tris-HCl lysis buffer previously distributed in Microbead tubes (Ultraclean Microbial DNA isolation kit Bead Tubes, MO BIO Laboratories, Carlsbad, USA). Mechanical lysis of bacteria was performed by strong agitation of Microbead tubes using a vortex adapter (MO BIO Laboratories) for 30 min at room temperature. This bacterial suspension was centrifuged at 10,000×g at room temperature for 5 min. Thirty μl of the supernatant was mixed in a well of a 96-well tray with 100 μl of a 1 ml solution made of 3 mg of purified cefotaxime sodium salt (Sigma-Aldrich, Saint-Quentin-Fallavier, France) in a pH 7.8 phenol red solution. […]. The phenol red solution was made by taking 2 ml of a concentrated pH 8 phenol solution (made from a mixture of phenol red 0.5% in distilled water) to which 16.6 ml of distilled water was added. The pH value was then adjusted to a 7.8 value by adding drops of a 1 N NaOH solution. Mixture of the phenol red solution and the enzymatic suspension being tested was incubated at 37° C. for 30 min. Similarly, culture extracts were analyzed in wells containing cefotaxime and tazobactam (4 mg/ml). Other concentrations of tazobactam and other ß-lactamase inhibitors were tested giving less clear results (data not shown). […] This definition of test positivity will be applied throughout the study.
Rapid detection of ESBL producers was attempted from spiked blood cultures which positivity was assessed using the BactAlert blood culture system (bioMérieux). […] This inoculum was reached after 24-48 h incubation in this BactAlert system. Strains were inoculated into blood culture system in presence of 10 ml of sterile blood. The panel of strains used for spiking blood cultures included either non-ESBL producers (n=24) or ESBL producers (n=64) (Table 4). Spiked blood cultures were made of 1×10^3 CFU of each strain and incubated 24 to 48 h before a positivity of the blood culture was detected by the BactAlert system. Then, 15 ml of spiked blood culture were transferred in a sterile tube and centrifuged at 1,500×g for 3 min to pellet the red blood cells. The supernatant was recovered and centrifuged for 15 min at 4,000×g to pellet the bacteria. The bacterial pellet was then resuspended in 500 μl of distilled water, transferred in 1.5 ml tube and thoroughly vortexed for 15 sec to lyse the remnant red blood cells and wash the bacterial pellet. After 5 min of centrifugation at 10,000×g, the bacterial pellet was resuspended in 150 μl of 20 mM Tris-HCl lysis buffer and distributed in beadtubes. The ESBL NDP test was then applied to this pellet as described above. Experiments were systematically performed in triplicate.

[4] = test system: C. brakii; experiment: ESBL NDP test using cultured strains; assay type: biochemical; design: key: (+) and (−) referred to color change being, red to yellow or unchanged, respectively; (+) and (−) referred to color change being, red to yellow or unchanged, respectively; conditions: C. brakii Wild-type, chromosome-encoded cephalosporinase, n=1
Protocol: as §1

[5] = test system: E. sakazakii; experiment: ESBL NDP test using cultured strains; assay type: biochemical; design: key: (+) and (−) referred to color change being, red to yellow or unchanged, respectively; (+) and (−) referred to color change being, red to yellow or unchanged, respectively; conditions: overexpressed chromosome-encoded cephalosporinase, n=1
Protocol: as §1

[6] = test system: S. ficaria; experiment: ESBL NDP test using cultured strains; assay type: biochemical; design: key: (+) and (−) referred to color change being, red to yellow or unchanged, respectively; (+) and (−) referred to color change being, red to yellow or unchanged, respectively
Protocol: as §1

[7] = test system: S. thyphimurium; experiment: ESBL NDP test using cultured strains; assay type: biochemical; design: key: (+) and (−) referred to color change being, red to yellow or unchanged, respectively; (+) and (−) referred to color change being, red to yellow or unchanged, respectively; conditions: S. thyphimurium 10.81, CTX-M-1
Protocol: as §1

SMILES: CO/N=C(\C(=O)N[C@@H]1C(=O)N2C(C(=O)O)=C(COC(C)=O)CS[C@H]12)c1csc(N)n1 [CTX, cefotaxime]
- MICs range ([1]; C. freundii CTX-M-15, n=3): >16 µg/mL
- MICs range ([1]; C. freundii TEM-3, n=1): >16 µg/mL
- MICs range ([1]; C. freundii Wild-type, chromosome-encoded cephalosporinase, n=1): 0.12 µg/mL
- color of the wells [2]: turned from red to yellow
- ESBL NDP Test from: Blood culture ([3]; E. coli 09.11, TEM-52): +
- ESBL NDP Test from: Blood culture ([3]; E. coli 09.123, TEM-133): +
- ESBL NDP Test from: Blood culture ([3]; E. coli 09.124, TEM-52): +
- ESBL NDP Test from: Blood culture ([3]; E. coli 09.129, SHV-12): +
- ESBL NDP Test from: Blood culture ([3]; E. coli 09.173, SHV-12): +
- ESBL NDP Test from: Blood culture ([3]; E. coli 09.187, SHV-2a): +
- ESBL NDP Test from: Blood culture ([3]; E. coli 09.193, SHV-12): +
- ESBL NDP Test from: Blood culture ([3]; E. coli 09.207, SHV-2a): +
- ESBL NDP Test from: Blood culture ([3]; E. coli 09.225, TEM-52): +
- ESBL NDP Test from: Blood culture ([3]; E. coli 09.40, TEM-52): +
- ESBL NDP Test from: Blood culture ([3]; E. coli 09.41, SHV-12): +
- ESBL NDP Test from: Blood culture ([3]; E. coli 09.66, TEM-52): +
- ESBL NDP Test from: Blood culture ([3]; E. coli 09.73, TEM-52): +
- ESBL NDP Test from: Blood culture ([3]; E. coli 09.79, SHV-12): +
- ESBL NDP Test from: Blood culture ([3]; E. coli 09.92, TEM-52): +
- ESBL NDP Test from: Blood culture ([3]; E. coli 10.104, CTX-M-1): +
- ESBL NDP Test from: Blood culture ([3]; E. coli 10.11, CTX-M-14): +
- ESBL NDP Test from: Blood culture ([3]; E. coli 10.121, CTX-M-2): +
- ESBL NDP Test from: Blood culture ([3]; E. coli 10.124, CTX-M-14): +
- ESBL NDP Test from: Blood culture ([3]; E. coli 10.130, CTX-M-3): +
- ESBL NDP Test from: Blood culture ([3]; E. coli 10.13, CTX-M-14): +
- ESBL NDP Test from: Blood culture ([3]; E. coli 10.132, CTX-M-2): +
- ESBL NDP Test from: Blood culture ([3]; E. coli 10.16, CTX-M-15): +
- ESBL NDP Test from: Blood culture ([3]; E. coli 10.178, CTX-M-27): +
- ESBL NDP Test from: Blood culture ([3]; E. coli 10.198, CTX-M-27): +
- ESBL NDP Test from: Blood culture ([3]; E. coli 10.204, CTX-M-27): +
- ESBL NDP Test from: Blood culture ([3]; E. coli 10.207, CTX-M-27): +
- ESBL NDP Test from: Blood culture ([3]; E. coli 10.23, CTX-M-2): +
- ESBL NDP Test from: Blood culture ([3]; E. coli 10.32, CTX-M-14): +
- ESBL NDP Test from: Blood culture ([3]; E. coli 10.33, CTX-M-15): +
- ESBL NDP Test from: Blood culture ([3]; E. coli 10.36, CTX-M-1): +
- ESBL NDP Test from: Blood culture ([3]; E. coli 10.38, CTX-M-1): +
- ESBL NDP Test from: Blood culture ([3]; E. coli 10.43, CTX-M-15): +
- ESBL NDP Test from: Blood culture ([3]; E. coli 10.46, CTX-M-14): +
- ESBL NDP Test from: Blood culture ([3]; E. coli 10.49, CTX-M-15): +
- ESBL NDP Test from: Blood culture ([3]; E. coli 10.53, CTX-M-9): +
- ESBL NDP Test from: Blood culture ([3]; E. coli 10.64, CTX-M-32): +
- ESBL NDP Test from: Blood culture ([3]; E. coli 10.73, CTX-M-27): +
- ESBL NDP Test from: Blood culture ([3]; E. coli 10.74, CTX-M-15): +
- ESBL NDP Test from: Blood culture ([3]; E. coli 10.95, CTX-M-1): +
- ESBL NDP Test from: Blood culture ([3]; E. coli (Belgium), ACC-1): −
- ESBL NDP Test from: Blood culture ([3]; E. coli A7R5, SHV-3): +
- ESBL NDP Test from: Blood culture ([3]; E. coli BG 1106 5698, Penicillinase): −
- ESBL NDP Test from: Blood culture ([3]; E. coli BG 1106 6252, Wild-type): −
- ESBL NDP Test from: Blood culture ([3]; E. coli BG 1106 6367, Wild-type): −
- ESBL NDP Test from: Blood culture ([3]; E. coli BG 1106 7202, Penicillinase): −
- ESBL NDP Test from: Blood culture ([3]; E. coli BG 1107 8873, Wild-type): −
- ESBL NDP Test from: Blood culture ([3]; E. coli BG 1108 6157, Penicillinase): −
- ESBL NDP Test from: Blood culture ([3]; E. coli C5O52, CTX-M-28): +
- ESBL NDP Test from: Blood culture ([3]; E. coli Ec13 SYD, CMY-2): +
- ESBL NDP Test from: Blood culture ([3]; E. coli GOU, DHA-1): −
- ESBL NDP Test from: Blood culture ([3]; E. coli LOU, ACC-1): +
- Test (color change) [4]: −
- Test (color change) [5]: −
- ESBL NDP Test from: Colonies ([6]; S. ficaria CIP 104255, Wild-type): −
- Test (color change) ([6]; S. ficaria Wild-type, chromosome-encoded cephalosporinase, n=1): −
- ESBL NDP Test from: Colonies [7]: +
